Source: ChEMBL document CHEMBL3612013, “Cyclodextrin complexation highly enhances efficacy of arylsulfonylureido benzenesulfonamide carbonic anhydrase inhibitors as a topical antiglaucoma agents” (Bioorg Med Chem, 2015)
Values after ≈ are worked out from the molar mass of the structure shown.

How the values were obtained:
[1] = Aqueous solubility in pH 7.4 PBS incubated for 48 hrs at 25 degC by spectrophotometry; assay type: physicochemical
[2] = Aqueous solubility in pH 7.4 PBS in presence of gamma-cyclodextrin incubated for 48 hrs at 25 degC by spectrophotometry; assay type: physicochemical; settings: PBS with gamma-cyclodextrin
[3] = Aqueous solubility in pH 7.4 PBS in presence of hydroxypropyl-gamma cyclodextrin incubated for 48 hrs at 25 degC by spectrophotometry; assay type: physicochemical; settings: PBS with hydroxypropyl-gamma cyclodextrin
[4] = Aqueous solubility in pH 7.4 PBS in presence of hydroxypropyl-alpha cyclodextrin incubated for 48 hrs at 25 degC by spectrophotometry; assay type: physicochemical; settings: PBS with hydroxypropyl-alpha cyclodextrin
[5] = Aqueous solubility in pH 7.4 PBS in presence of sulfobutyl-ether-beta cyclodextrin incubated for 48 hrs at 25 degC by spectrophotometry; assay type: physicochemical; settings: PBS with sulfobutyl-ether-beta cyclodextrin
[6] = Aqueous solubility in pH 7.4 PBS in presence of hydroxypropyl-beta cyclodextrin incubated for 48 hrs at 25 degC by spectrophotometry; assay type: physicochemical; settings: PBS with hydroxypropyl-beta cyclodextrin
[7] = Aqueous solubility in pH 7.4 PBS in presence of hydroxyethyl-beta cyclodextrin incubated for 48 hrs at 25 degC by spectrophotometry; assay type: physicochemical; settings: PBS with hydroxyethyl-beta cyclodextrin
[8] = Stability of the compound; assay type: physicochemical
Oryctolagus cuniculus [9] = assay: (§1) Antiglaucoma activity in New Zealand albino rabbit model of carbomer-induced hypertensive eye glaucoma assessed as time duration showing reduction in intraocular pressure at 0.07% using compound complexed with cyclodextrin directly instilled into conjunctive pocket measured 24 hrs post drug administration; assay type: functional
Oryctolagus cuniculus [10] = assay: as §1, with “as” for “as time duration showing reduction in”, “1 hr” for “24 hrs”, “administration (reference value: 45 to 50 mmHg)” for “administration”; assay type: functional
Oryctolagus cuniculus [11] = assay: as §1, with “as” for “as time duration showing reduction in”, “administration (reference value: 45 to 50 mmHg)” for “administration”; assay type: functional
Oryctolagus cuniculus [12] = assay: Toxicity in New Zealand albino rabbit model of carbomer-induced hypertensive eye glaucoma assessed as induction of eye irritation at 2% directly instilled into conjunctive pocket measured 24 hrs post drug administration; assay type: organism-based; settings: in vivo, topical_or_ocular
Oryctolagus cuniculus [13] = assay: Toxicity in New Zealand albino rabbit model of carbomer-induced hypertensive eye glaucoma assessed as induction of eye irritation at 0.07% using compound complexed with cyclodextrin directly instilled into conjunctive pocket measured 24 hrs post drug administration; assay type: organism-based; settings: in vivo, topical_or_ocular
[14] = Equilibrium solubility in pH 7.4 PBS in presence of hydroxypropyl-gamma cyclodextrin incubated for 48 hrs at 25 degC by spectrophotometry; assay type: physicochemical; settings: PBS with hydroxypropyl-gamma cyclodextrin
Oryctolagus cuniculus [15] = assay: as §1, with “0.37%” for “0.07%”; assay type: functional
Oryctolagus cuniculus [16] = assay: (§2) Antiglaucoma activity in New Zealand albino rabbit model of carbomer-induced hypertensive eye glaucoma assessed as intraocular pressure at 0.37% using compound complexed with cyclodextrin directly instilled into conjunctive pocket measured 1 hr post drug administration (reference value: 45 to 50 mmHg); assay type: functional
Oryctolagus cuniculus [17] = assay: as §2, with “24 hrs” for “1 hr”; assay type: functional
Oryctolagus cuniculus [18] = assay: Toxicity in New Zealand albino rabbit model of carbomer-induced hypertensive eye glaucoma assessed as induction of eye irritation at 0.37% using compound complexed with cyclodextrin directly instilled into conjunctive pocket measured 24 hrs post drug administration; assay type: organism-based; settings: in vivo, topical_or_ocular

| solubility at 48 h [1] [µg/mL] | solubility at 48 h [2] [µg/mL] | solubility at 48 h [3] [µg/mL] | solubility at 48 h [4] [µg/mL] | solubility at 48 h [5] [µg/mL] | solubility at 48 h [6] [µg/mL] | solubility at 48 h [7] [µg/mL] | K [8] [M⁻¹] | solubility thermodynamic at 48 h [14] [µg/mL] | Compound | Time (Oryctolagus cuniculus [9]) [h] | Activity (Oryctolagus cuniculus [10]) [mmHg] | Activity (Oryctolagus cuniculus [11]) [mmHg] | Activity (Oryctolagus cuniculus [12]) | Activity (Oryctolagus cuniculus [13]) | Time (Oryctolagus cuniculus [15]) [h] | Activity (Oryctolagus cuniculus [16]) [mmHg] | Activity (Oryctolagus cuniculus [17]) [mmHg] | Activity (Oryctolagus cuniculus [18]) |
| --- | --- | --- | --- | --- | --- | --- | --- | --- | --- | --- | --- | --- | --- | --- | --- | --- | --- | --- |
| 87 (≈ 219 µM) | 232 | 278 | 141 | 174 | 212 | 203 | 143.75 | 700 | Cc1ccc(S(=O)(=O)NC(=O)NCCc2ccc(S(N)(=O)=O)cc2)cc1 | 20 | 36 | 35 | Toxic | Toxic | – | – | – | – |
| 972 (≈ 2420 µM) | 2260 | 2330 | 1580 | 1810 | 2170 | 2240 | 76.3 | 3700 | NS(=O)(=O)c1ccc(CCNC(=O)NS(=O)(=O)c2ccc(F)cc2)cc1 | – | – | – | Toxic | – | 20 | 36 | 35 | Toxic |
